The values below are quoted from earlier work in patent publication US9468651B1, “Method of removing moles” (priority 2009, dated 2016).

The conditions of the data set: property of the ingredient stated with a literature reference (Merck Index; Concise Encyclopedia of Chemical Technology).

For the compound `[K+].[OH-]` [Potassium hydroxide], the PH value is recorded as 13.5.
